Reference: ChEMBL document CHEMBL5154879, “Induction of Genes Implicated in Stress Response and Autophagy by a Novel Quinolin-8-yl-nicotinamide QN523 in Pancreatic Cancer” (J Med Chem, 2022)
pIC50: −log10 of the molar value. Activity calls are given as the source filed them. The calls are words filed in the database; no cut-off is given here.

Tests used:
[1] = tested on: HepG2; test: Antiproliferative activity against human HepG2 cells assessed as inhibition of cell growth incubated for 72 hrs by MTT assay; format: functional, cell-based; conditions: HepG2, 72 h
[2] = Cytotoxicity against HEK293 cells assessed as inhibition of cell growth incubated for 72 hrs by MTT assay; format: toxicity, cell-based; conditions: human
[3] = tested on: MIA PaCa-2; test: Induction of cell cycle arrest in human MIA PaCa-2 cells assessed as accumulation of cells at S phase at 0.1 uM incubated for 24 hrs by RNase/propidium iodide staining based flow cytometry analysis (Rvb =27.6 %); format: functional
[4] = tested on: MIA PaCa-2; test: Induction of cell cycle arrest in human MIA PaCa-2 cells assessed as accumulation of cells in G2/M phase at 0.1 uM incubated for 48 hrs by RNase/propidium iodide staining based flow cytometry analysis (reference value: 2.71%); format: functional
[5] = tested on: MIA PaCa-2; test: Induction of apoptosis in human MIA PaCa-2 cells assessed as early apoptotic cells at 0.5 uM incubated for 24 hrs by Annexin V-FITC/PI staining based flow cytometry analysis (reference value: 5.1%); format: functional
[6] = tested on: MIA PaCa-2; test: Induction of apoptosis in human MIA PaCa-2 cells assessed as live cells at 0.1 uM incubated for 48 hrs by Annexin V-FITC/PI staining based flow cytometry analysis (reference value: 96.3%); format: functional
[7] = tested on: MIA PaCa-2; test: Induction of apoptosis in human MIA PaCa-2 cells assessed as early apoptotic cells at 0.1 uM incubated for 48 hrs by Annexin V-FITC/PI staining based flow cytometry analysis (reference value: 1.8%); format: functional
[8] = tested on: MIA PaCa-2; test: Induction of apoptosis in human MIA PaCa-2 cells assessed as necrotic cells at 0.1 uM incubated for 48 hrs by Annexin V-FITC/PI staining based flow cytometry analysis (reference value: 1.07%); format: functional
[9] = Toxicity in NOD/SCID mouse xenografted with human MIA PaCa-2 cells assessed as change in body weight at 30 mg/kg, ip administered five times a week starting from day 44 to 51 post first dose; format: organism-based; conditions: in vivo, 1224 h, time 51 day
[10] = Upregulation of TRIB3 gene expression in human MIA PaCa-2 cells assessed as fold change in TRIB3 expression at 1 uM incubated for 24 hrs by Bru-seq analysis relative to control; format: functional
[11] = Upregulation of DDIT3 gene expression in human MIA PaCa-2 cells assessed as fold change in DDIT3 expression at 1 uM incubated for 24 hrs by Bru-seq analysis relative to control; format: functional
[12] = Upregulation of CXCL8 gene expression in human MIA PaCa-2 cells assessed as fold change in CXCL8 expression at 1 uM incubated for 24 hrs by Bru-seq analysis relative to control; format: functional
[13] = Upregulation of SESN2 gene expression in human MIA PaCa-2 cells assessed as fold change in SESN2 expression at 1 uM incubated for 24 hrs by Bru-seq analysis relative to control; format: functional
[14] = Upregulation of TXNIP gene expression in human MIA PaCa-2 cells assessed as fold change in TXNIP expression at 1 uM incubated for 24 hrs by Bru-seq analysis relative to control; format: functional
[15] = Upregulation of SERPINB8 gene expression in human MIA PaCa-2 cells assessed as fold change in SERPINB8 expression at 1 uM incubated for 24 hrs by Bru-seq analysis relative to control; format: functional
[16] = Downregulation of HMG20B gene expression in human MIA PaCa-2 cells assessed as fold change in HMG20B expression at 1 uM incubated for 24 hrs by Bru-seq analysis relative to control; format: functional
[17] = Downregulation of INCENP gene expression in human MIA PaCa-2 cells assessed as fold change in INCENP expression at 1 uM incubated for 24 hrs by Bru-seq analysis relative to control; format: functional
[18] = Downregulation of CXXC5 gene expression in human MIA PaCa-2 cells assessed as fold change in CXXC5 expression at 1 uM incubated for 24 hrs by Bru-seq analysis relative to control; format: functional
[19] = Downregulation of LAMA5 gene expression in human MIA PaCa-2 cells assessed as fold change in LAMA5 expression at 1 uM incubated for 24 hrs by Bru-seq analysis relative to control; format: functional
[20] = tested on: MIA PaCa-2; test: Induction of UPR pathway in human MIA PaCa-2 cells by ingenuity pathway analysis; format: functional, cell-based
[21] = tested on: MIA PaCa-2; test: Induction of ER stress pathway in human MIA PaCa-2 cells by ingenuity pathway analysis; format: functional, cell-based
[22] = tested on: MIA PaCa-2; test: Downregulation of chromosomal proteins expression in human MIA PaCa-2 cells; format: functional, cell-based
[23] = tested on: MIA PaCa-2; test: Upregulation of ER- related gene expression in human MIA PaCa-2 cells; format: functional, cell-based
[24] = tested on: MIA PaCa-2; test: Upregulation of stress response gene expression in human MIA PaCa-2 cells; format: functional, cell-based
[25] = tested on: MIA PaCa-2; test: Upregulation of UPR gene expression in human MIA PaCa-2 cells by gene set enrichment analysis; format: functional, cell-based
[26] = tested on: MIA PaCa-2; test: Downregulation of mitotic spindle gene expression in human MIA PaCa-2 cells by gene set enrichment analysis; format: functional, cell-based
[27] = tested on: MIA PaCa-2; test: Synergistic autophagy activity in human MIA PaCa-2 cells assessed as inhibition of colony formation at 0.001 to 0.1 uM incubated for 7 days in presence of autophagy inhibitor chloroquine by crystal violet staining based assay; format: functional, cell-based; conditions: dose 0.001-0.1 µM, time 7.0 day
[28] = tested on: MIA PaCa-2; test: Upregulation of ATF3 gene expression in human MIA PaCa-2 cells incubated for 72 hrs by Western blot analysis; format: functional, cell-based; conditions: dose <= 600.0 µM, DDE = dose-dependent effect

O=C(Nc1cccc2cccnc12)c1cnccn1
pIC50 [1]: 6.30 | IC50 at 72 h [2]: 150 nM | Activity [3]: 33.2% | Activity [4]: 8.22% | Activity [5]: 10.1% | Activity [6]: 92% | Activity [7]: 5.5% | Activity [8]: 1.1% | Activity [9]: Non-Toxic | fold change (FC) [10]: 14.5 | fold change (FC) [11]: 11 | fold change (FC) [12]: 6 | fold change (FC) [13]: 5.4 | fold change (FC) [14]: 6 | fold change (FC) [15]: 5.3 | fold change (FC) [16]: 0.33 | fold change (FC) [17]: 0.46 | fold change (FC) [18]: 0.4 | fold change (FC) [19]: 0.42 | Activity [20]: Active | Activity [21]: Active | Activity [22]: Active | Activity [23]: Active | Activity [24]: Active | Activity [25]: Active | Activity [26]: Active | Activity [27]: Active | Activity [28]: Dde
